Experimental data from US9890138B2, “Diaminopyrimidine derivatives and processes for the preparation thereof” (YUHAN CORPORATION, priority 2011, dated 2018).
pEC50: −log10 of the molar value. Structures can show the parent of a compound that is named as a salt.

Target: T1, human 5-HT4(a) (Homo sapiens, UniProt Q13639)
T1 construct: host or cells: GeneBlAzer HTR4-CRE-bla CHO-K1 cells
Assay: Evaluation of agonistic activity in CHO-K1 cells expressing human 5-HT4(a) (GeneBlAzer HTR4-CRE-bla CHO-K1, beta-lactamase reporter)
Assay type: cell-based
Details: CHO-K1 cells stably expressing human 5-HT4(a)
How it was run: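 GeneBlAzer HTR4-CRE-bla CHO-K1 cells, 10^4/well overnight, exposed 5 h to compounds at 8 concentrations in medium with 1% DMSO in the added solution. β-lactamase substrate 2 h in dark; 410 nm excitation, 465/535 nm emission ratio; EC50 by non-linear regression.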

T1 sequence (Q13639 1-387 isoform Q13639-2): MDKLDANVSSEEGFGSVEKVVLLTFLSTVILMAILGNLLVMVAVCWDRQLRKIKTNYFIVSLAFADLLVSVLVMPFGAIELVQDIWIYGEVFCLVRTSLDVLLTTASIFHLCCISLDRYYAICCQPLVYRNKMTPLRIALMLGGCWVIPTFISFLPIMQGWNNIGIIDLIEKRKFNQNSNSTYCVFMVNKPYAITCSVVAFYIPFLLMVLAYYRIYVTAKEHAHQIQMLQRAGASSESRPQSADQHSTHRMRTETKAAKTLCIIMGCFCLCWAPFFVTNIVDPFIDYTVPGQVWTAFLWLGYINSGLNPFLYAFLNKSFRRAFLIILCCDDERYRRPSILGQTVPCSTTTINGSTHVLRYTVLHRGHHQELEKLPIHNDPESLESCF

Row | SMILES | pEC50
1 | CCCCc1cc(N2CC[C@H](N(CC)CC)C2)nc(Nc2cccc(C#N)c2)n1 [Example 236] | 9.68
2 | CCCc1cc(N2CCC[C@H]2COC)nc(Nc2ccc(C)c(C#N)c2)n1 [Example 44, (S)-5-{4-[2-(methoxymethyl)pyrrolidin-1-yl]-6-propylpyrimidin-2-ylamino}-2-methylbenzonitrile] | 10.66
3 | CCCc1cc(N2CCC[C@H]2COC)nc(Nc2ccc(F)c([N+](=O)[O-])c2)n1 [Example 31, (S)-N-(4-fluoro-3-nitrophenyl)-4-[2-(methoxymethyl)pyrrolidin-1-yl]-6-propylpyrimidin-2-amine] | 9.89
4 | CCCc1cc(N2CC[C@H](NC(=O)CN(C)C)C2)nc(Nc2cccc(C#N)c2)n1 [Example 160] | 9.92
5 | CCCCc1cc(N2CC[C@H](NCC3CC3)C2)nc(Nc2ccc(C)c(C#N)c2)n1 [Example 240] | 11.60
6 | CCCc1cc(N2CCC[C@H]2CO)nc(Nc2cccc(C#N)c2)n1 [Example 194, (S)-3-{4-[2-(hydroxymethyl)pyrrolidin-1-yl]-6-propylpyrimidin-2-ylamino}benzonitrile] | 9.70
7 | CCCc1cc(N2CC[C@H](NC(=O)CCC(C)=O)C2)nc(Nc2cccc(C#N)c2)n1 [Example 156, (S)-N-{1-[2-(3-cyanophenylamino)-6-propylpyrimidin-4-yl]pyrrolidin-3-yl}-4-oxopentanamide] | 9.66
8 | C/C=C(\C)C(=O)N[C@H]1CCN(c2cc(CCC)nc(Nc3cccc(C#N)c3)n2)C1 [Example 149, (S,E)-N-{1-[2-(3-cyanophenylamino)-6-propylpyrimidin-4-yl]pyrrolidin-3-yl}-2-methylbut-2-enamide] | 9.56
9 | CCCc1cc(N2CC[C@H](NCc3cccc(C(F)(F)F)c3)C2)nc(Nc2cccc(C#N)c2)n1 [Example 107, (S)-3-(4-propyl-6-{3-[3-(trifluoromethyl)benzylamino]pyrrolidin-1-yl}pyrimidin-2-ylamino)benzonitrile] | 9.38
10 | CCCc1cc(N2CC[C@H](NC3CCC3)C2)nc(Nc2cccc(C#N)c2)n1 [Example 142, (S)-3-{4-[3-(cyclobutylamino)pyrrolidin-1-yl]-6-propylpyrimidin-2-ylamino}benzonitrile] | 11.00
11 | CCCc1cc(N2CC[C@H](NC3CCCCCCC3)C2)nc(Nc2cccc(C#N)c2)n1 [Example 141, (S)-3-{4-[3-(cyclooctylamino)pyrrolidin-1-yl]-6-propylpyrimidin-2-ylamino}benzonitrile] | 10.07
12 | CCCCC(C)N[C@H]1CCN(c2cc(CCC)nc(Nc3cccc(C#N)c3)n2)C1 (stereo partly drawn) [Example 133, (S)-3-{4-[3-(n-hexan-2-ylamino)pyrrolidin-1-yl]-6-propylpyrimidin-2-ylamino}benzonitrile] | 10.41
13 | CCCc1cc(N2CCC[C@H]2C(=O)OC)nc(Nc2ccc3cc[nH]c3c2)n1 [Example 191] | 9.54
14 | CCCc1cc(N2CC[C@H](NCC(C)CC)C2)nc(Nc2cccc(C#N)c2)n1 (stereo partly drawn) [Example 95, 3-{4-[(3S)-3-(2-methylbutylamino)pyrrolidin-1-yl]-6-propylpyrimidin-2-ylamino}benzonitrile] | 10.09
15 | CCCCc1cc(N2CCC[C@H]2CO)nc(Nc2cccc(C#N)c2)n1 [Example 224] | 11.37
16 | CCCc1cc(N2CCC[C@H]2COC)nc(Nc2ccc(Cl)c([N+](=O)[O-])c2)n1 [Example 33, (S)-N-(4-chloro-3-nitrophenyl)-4-[2-(methoxymethyl)pyrrolidin-1-yl]-6-propyl pyrimidin-2-amine] | 10.23
17 | CCCc1cc(N2CC[C@H](NC3CCN(C(=O)c4ccccc4)CC3)C2)nc(Nc2cccc(C#N)c2)n1 [Example 139, (S)-3-{4-[3-(1-benzoylpiperidin-4-ylamino)pyrrolidin-1-yl]-6-propylpyrimidin-2-ylamino}benzonitrile] | 10.47
18 | CCCc1cc(N2CC[C@H](NCc3cccnc3)C2)nc(Nc2cccc(C#N)c2)n1 [Example 102, (S)-3-{4-propyl-6-[3-(pyridin-3-ylmethylamino)pyrrolidin-1-yl]pyrimidin-2-ylamino}benzonitrile] | 9.41
19 | CCCc1cc(N2CC[C@H](NC(=O)Cc3ccc(F)cc3)C2)nc(Nc2cccc(C#N)c2)n1 [Example 67, (S)-N-{1-[2-(3-cyanophenylamino)-6-propylpyrimidin-4-yl]pyrrolidin-3-yl}-2-(4-fluorophenyl)acetamide] | 9.72
20 | CCCc1cc(N2CCC[C@H]2COC)nc(Nc2ccc(F)c(C(F)(F)F)c2)n1 [Example 41, (S)-N-[4-fluoro-3-(trifluoromethyl)phenyl]-4-[2-(methoxymethyl)pyrrolidin-1-yl]-6-propylpyrimidin-2-amine] | 9.82
21 | CCCc1cc(N2CC[C@H](NC(=O)CCc3ccc(O)cc3)C2)nc(Nc2cccc(C#N)c2)n1 [Example 155, (S)-N-{1-[2-(3-cyanophenylamino)-6-propylpyrimidin-4-yl]pyrrolidin-3-yl}-3-(4-hydroxyphenyl)propanamide] | 9.38
22 | CCCc1cc(N2CC[C@H](NCCN)C2)nc(Nc2cccc(C#N)c2)n1 [Example 220] | 10.15

More lines, now with the values ahead:

Row | pEC50 | SMILES
23 | 10.82 | CCCc1cc(N2CC[C@H](NC(C)=O)C2)nc(Nc2ccc(N)c(C#N)c2)n1 [Example 260]
24 | 10.89 | CCCc1cc(N2CC[C@H](NC(C)=O)C2)nc(Nc2ccc(Cl)c(N)c2)n1 [Example 290]
25 | 11.49 | CCCc1cc(N2CC[C@H](NC3CCC3)C2)nc(Nc2ccc(C)c(C#N)c2)n1 [Example 419]
26 | 9.71 | CCCc1cc(N2CC[C@H](NC(C)=O)C2)nc(Nc2ccc(C)c(C)c2)n1 [Example 281]
27 | 10.34 | CCCc1cc(N2CCC[C@H]2C)nc(Nc2ccc(Cl)c(N)c2)n1 [Example 332]
28 | 10.32 | CCCc1cc(N2CCC(NC(C)=O)C2)nc(Nc2cccc([N+](=O)[O-])c2)n1 (stereo not shown) [Example 295, N-{1-[2-(3-nitrophenylamino)-6-propylpyrimidin-4-yl]pyrrolidin-3-yl}acetamide]
29 | 10.70 | CCCc1cc(N2CC[C@H](NCc3cc(C)c(C)o3)C2)nc(Nc2ccc(C)c(C#N)c2)n1 [Example 424]
30 | 9.40 | CCCc1cc(N2CCC[C@H]2CNCc2ccc(F)cc2)nc(Nc2cccc(C#N)c2)n1 [Example 405]
31 | 10.77 | CCCc1cc(N2CCC[C@H]2C)nc(Nc2ccc(N)c([N+](=O)[O-])c2)n1 [Example 328, (R)—N^1-[4-(2-methylpyrrolidin-1-yl)-6-propylpyrimidin-2-yl]-3-nitrobenzene-1,4-diamine]
32 | 11.89 | CCCc1cc(N2CC[C@H](NCC3CC3)C2)nc(Nc2ccc(C)c(C#N)c2)n1 [Example 377, (S)-5-{4-[3-(cyclopropylmethylamino)pyrrolidin-1-yl]-6-propylpyrimidin-2-ylamino}-2-methylbenzonitrile]
33 | 11.54 | CCCc1cc(N2CC[C@H](NCC)C2)nc(Nc2ccc(F)c(C(F)(F)F)c2)n1 [Example 491, (S)-4-[3-(ethylamino)pyrrolidin-1-yl]-N-[4-fluoro-3-(trifluoromethyl)phenyl]-6-propylpyrimidin-2-amine hydrochloride]
34 | 10.72 | CCCc1cc(N2CC[C@H](N)C2)nc(Nc2cc(Cl)ccc2C)n1 [Example 348, (S)-4-(3-aminopyrrolidin-1-yl)-N-(5-chloro-2-methylphenyl)-6-propylpyrimidin-2-amine dihydrochloride]
35 | 10.96 | CCCc1cc(N2CC[C@H](NC(C)=O)C2)nc(Nc2cc(N)cc(C(F)(F)F)c2)n1 [Example 268]
36 | 11.11 | CCCCc1cc(N2CC[C@H](NC)C2)nc(Nc2ccc(Cl)c([N+](=O)[O-])c2)n1 [Example 450]
37 | 11.82 | CCCc1cc(N2CC[C@H](NC(C)=O)C2)nc(Nc2ccc(N)c([N+](=O)[O-])c2)n1 [Example 254, (S)—N-{1-[2-(4-amino-3-nitrophenylamino)-6-propylpyrimidin-4-yl]pyrrolidin-3-yl}acetamide]
38 | 11.48 | CCCCc1cc(N2CC[C@H](NCC)C2)nc(Nc2ccc(Cl)c(N)c2)n1 [Example 471]
39 | 11.72 | CCCCc1cc(N2CC[C@H](NCC)C2)nc(Nc2ccc(N)c([N+](=O)[O-])c2)n1 [Example 461]
40 | 9.85 | CCCc1cc(N2CCC[C@H]2C)nc(Nc2ccc3c(C)cc(=O)oc3c2)n1 [Example 317]
41 | 11.64 | CCCCc1cc(N2CC[C@H](NC)C2)nc(Nc2ccc(N)c(C#N)c2)n1 [Example 447]
42 | 11.36 | CCCCc1cc(N2CC[C@H](NC)C2)nc(Nc2ccc(F)c([N+](=O)[O-])c2)n1 [Example 449]
43 | 9.38 | CCCc1cc(N2CCC[C@H]2CNC)nc(Nc2cccc(C#N)c2)n1 [Example 403]
44 | 11.42 | CCCCc1cc(N2CC[C@H](NC)C2)nc(Nc2ccc(F)c(C#N)c2)n1 [Example 455]
45 | 11.59 | CCCCc1cc(N2CC[C@H](NC(C)=O)C2)nc(Nc2ccc(N)c([N+](=O)[O-])c2)n1 [Example 337]
46 | 11.37 | CCCc1cc(N2CC[C@H](NCC3CC3)C2)nc(Nc2ccc(F)c([N+](=O)[O-])c2)n1 [Example 373]
47 | 11.15 | CCCc1cc(N2CCC(NCC3CC3)C2)nc(Nc2cccc(C#N)c2)n1 (stereo not shown) [Example 387, 3-{4-[3-(cyclopropylmethylamino)pyrrolidin-1-yl]-6-propylpyrimidin-2-ylamino}benzonitrile dihydrochloride]
48 | 10.55 | CCCc1cc(N2CCC[C@H]2C)nc(Nc2ccc3cc[nH]c3c2)n1 [Example 315]
49 | 9.82 | CCCc1cc(N2CCC[C@H]2COC)nc(Nc2ccc(OC)c(N)c2)n1 [Example 367, (S)-4-methoxy-N^1-{4-[2-(methoxymethyl)pyrrolidin-1-yl]-6-propylpyrimidin-2-yl}benzene-1,3-diamine]
50 | 11.13 | CCCc1cc(N2CC[C@H](NC(C)=O)C2)nc(Nc2ccc(F)c(N)c2)n1 [Example 291]
51 | 10.92 | CCCc1cc(N2CC[C@H](NC(C)=O)C2)nc(Nc2cccc([N+](=O)[O-])c2)n1 [Example 247]
52 | 11.00 | CCCc1cc(N2CC[C@H](NC(C)=O)C2)nc(Nc2ccc(F)c(C#N)c2)n1 [Example 251]
